From ChEMBL document CHEMBL4813973, “Discovery of novel N-benzylbenzamide derivatives as tubulin polymerization inhibitors with potent antitumor activities” (Eur J Med Chem, 2021)
Calls of active or inactive are those of the source. The calls are words filed in the database; no cut-off is given here.

Legend:
Sus scrofa = species on record: Sus scrofa; assay: Inhibition of [3H]colchicine binding to biotinylated pig brain tubulin at 5 uM incubated for 2 hrs in presence of GTP by competitive scintillation proximity assay; assay type: tissue-based
HCT-8 [1] = assay: Antiproliferative activity against taxol-resistant human HCT-8 cells assessed as reduction in cell viability incubated for 72 hrs by MTT assay; assay type: functional, cell-based; details: Homo sapiens, HCT-8, 72 h; read-out: IC50
A-431 [2] = assay: Induction of apoptosis in human A-431 cells assessed as necrotic cells at 7.5 nM after 48 hrs by Annexin-V-APC/PI-staining based flow cytometric analysis (reference value: 3.79%); assay type: functional
A-431 [3] = assay: Induction of apoptosis in human A-431 cells assessed as late apoptotic cells at 7.5 nM after 48 hrs by Annexin-V-APC/PI-staining based flow cytometric analysis (reference value: 2.02%); assay type: functional
K562/VCR = assay: Antiproliferative activity against VCR resistant human K562/VCR cells assessed as reduction in cell viability incubated for 72 hrs by MTT assay; assay type: functional, cell-based; details: Homo sapiens, K562/VCR, 72 h; read-out: IC50
HUVEC = assay: Cytotoxicity against HUVEC incubated for 6 hrs by inverted microscopic analysis; assay type: cell-based; details: Homo sapiens
[4] = Induction of mitochondria membrane potential loss in human A-431 cells assessed as green fluorescence intensity at 30 nM incubated for 48 hrs by JC-1 probe based flow cytometry analysis (reference value: 5.98%); assay type: functional
HCT-8 [5] = assay: Antiproliferative activity against human HCT-8 cells assessed as reduction in cell viability incubated for 72 hrs by MTT assay; assay type: functional, cell-based; details: Homo sapiens, HCT-8, 72 h; read-out: IC50
[6] = Induction of mitochondria membrane potential loss in human A-431 cells assessed as green fluorescence intensity at 15 nM incubated 48 hrs by JC-1 probe based flow cytometry analysis (reference value: 5.98%); assay type: functional
H22 [7] = assay: Antitumor activity against […] xenografted in ICR mouse assessed as reduction in tumor growth at 20 mg/kg/day, iv for 21 days; assay type: functional, organism-based; details: time 21.0 day
[8] = Induction of mitochondria membrane potential loss in human A-431 cells assessed as green fluorescence intensity at 7.5 nM incubated 48 hrs by JC-1 probe based flow cytometry analysis (reference value: 5.98%); assay type: functional
A-431 [9] = assay: Cell cycle arrest in human A-431 cells assessed as downregulation of cdc2 expression by Western blot analysis; assay type: functional, cell-based; details: dose 7.5-30 nM
[10] = Metabolic stability in rat plasma assessed as parent compound remaining at 100 nM measured after 3 hrs by HPLC analysis; assay type: ADME, cell-free; details: read-out: Stabilty
[11] = Metabolic stability in rat plasma assessed as parent compound remaining at 100 nM measured after 60 mins by HPLC analysis; assay type: ADME, cell-free; details: 1 h, 0.1 µM
A-431 [12] = assay: Induction of apoptosis in human A-431 cells assessed as activation of caspase 9 at 7.5 to 30 nM by western blot analysis; assay type: functional, cell-based; details: dose 7.5-30 nM
A-431 [13] = assay: Induction of apoptosis in human A-431 cells assessed as early apoptotic cells at 30 nM after 48 hrs by Annexin-V-APC/PI-staining based flow cytometric analysis (reference value: 0.82%); assay type: functional
[14] = Resistant index, ratio of IC50 for taxol-resistant human HCT-8 cells to IC50 for human HCT-8 cells; assay type: functional
A-431 [15] = assay: Induction of apoptosis in human A-431 cells assessed as downregulation of Bcl2 protein expression by western blot analysis; assay type: functional, cell-based; details: dose 7.5-30 nM
A-431 [16] = assay: Induction of apoptosis in human A-431 cells assessed as early apoptotic cells at 7.5 nM after 48 hrs by Annexin-V-APC/PI-staining based flow cytometric analysis (reference value: 0.82%); assay type: functional
[17] = Induction of mitochondria membrane potential loss in human A-431 cells assessed as red fluorescence intensity at 7.5 nM incubated 48 hrs by JC-1 probe based flow cytometry analysis (reference value: 93.83%); assay type: functional
A-431 [18] = assay: Induction of apoptosis in human A-431 cells assessed as viable cells at 30 nM after 48 hrs by Annexin-V-APC/PI-staining based flow cytometric analysis (reference value: 93.37%); assay type: functional; details: read-out: Activity
A-431 [19] = assay: Induction of cell cycle arrest in human A-431 cells assessed as accumulation at G1 phase at 7.5 nM after 48 hrs by propidium iodide staining based flow cytometry (reference value: 41.16%); assay type: functional
[20] = n-Octanol/water partition coefficient, logD of the compound incubated for 24 hrs at pH 7.4 by HPLC analysis; assay type: physicochemical
A-431 [21] = assay: Induction of apoptosis in human A-431 cells assessed as activation of caspase 3 by western blot analysis; assay type: functional, cell-based; details: dose 7.5-30 nM
A-431 [22] = assay: Induction of apoptosis in human A-431 cells assessed as nuclear fragmentation at 7.5 to 30 nM incubated for 48 hrs by Hoechst33342 staining based fluorescent microscopy; assay type: functional, cell-based; details: dose 7.5-30 nM
A-431 [23] = assay: Induction of apoptosis in human A-431 cells assessed as necrotic cells at 15 nM after 48 hrs by Annexin-V-APC/PI-staining based flow cytometric analysis (reference value: 3.79%); assay type: functional
A-431 [24] = assay: Induction of apoptosis in human A-431 cells assessed as viable cells at 15 nM after 48 hrs by Annexin-V-APC/PI-staining based flow cytometric analysis (reference value: 93.37%); assay type: functional; details: read-out: Activity
A-431 [25] = assay: Induction of apoptosis in human A-431 cells assessed as activation of p53 at 7.5 to 30 nM by western blot analysis; assay type: functional, cell-based; details: dose 7.5-30 nM
HepG2 = assay: cells; details: Homo sapiens, HepG2, 72 h
A-431 [26] = assay: Induction of apoptosis in human A-431 cells assessed as upregulation of Bax protein expression by western blot analysis; assay type: functional, cell-based; details: dose 7.5-30 nM
A-431 [27] = assay: Induction of apoptosis in human A-431 cells assessed as late apoptotic cells at 30 nM after 48 hrs by Annexin-V-APC/PI-staining based flow cytometric analysis (reference value: 2.02%); assay type: functional
H22 [28] = assay: Antiproliferative activity against mouse H22 cells assessed as reduction in cell viability incubated for 72 hrs by MTT assay; assay type: functional, cell-based; details: H22, 72 h
A-431 [29] = assay: Induction of cell cycle arrest in human A-431 cells assessed as accumulation at G2 phase at 30 nM after 48 hrs by propidium iodide staining based flow cytometry (reference value: 7.27%); assay type: functional
A-431 [30] = assay: Induction of cell cycle arrest in human A-431 cells assessed as accumulation at G2 phase at 7.5 nM after 48 hrs by propidium iodide staining based flow cytometry (reference value: 7.27%); assay type: functional
A-431 [31] = assay: Induction of ROS generation in human A-431 cells incubated for 48 hrs by DCFH-DA dye based flow cytometry; details: dose 7.5-30 nM
H22 [32] = assay: Antitumor activity against […] xenografted in ICR mouse assessed as reduction of tumor weight at 10 mg/kg/day, iv for 21 days; assay type: functional; details: 504 h, time 21 day
L02 = assay: Cytotoxicity against human L02 cells assessed as reduction in cell viability incubated for 72 hrs by MTT assay; assay type: cell-based; details: L02, 72 h
A-431 [33] = assay: Induction of cell cycle arrest in human A-431 cells assessed as accumulation at G2 phase at 15 nM after 48 hrs by propidium iodide staining based flow cytometry (reference value: 7.27%); assay type: functional

inhibition (Sus scrofa): 82.9%
IC50 (HCT-8 [1]): 106 nM
IC50 (K562/VCR): 205 nM
IC50 (HCT-8 [5]): 20 nM
remaining at 3 h, 0.1 µM [10]: 91.5%
Stabilty [11]: Stable
logD at 24 h [20]: 1.61
IC50 (HepG2): 25 nM
Structure (SMILES): COc1ccc(CNC(=O)c2cc(F)ccc2N2CCOCC2)cc1O
Activity (A-431 [2]): 8.23%
Activity (A-431 [3]): 9.21%
IC50 (HUVEC): 120 nM
Activity [4]: 65.96%
Activity [6]: 45.4%
Activity (H22 [7]): Active
Activity [8]: 26.73%
Activity (A-431 [9]): Dose-Dependent Effect
Activity (A-431 [12]): Active
Activity (A-431 [13]): 34.02%
Ratio IC50 [14]: 5.3
Activity (A-431 [15]): Dose-Dependent Effect
Activity (A-431 [16]): 11.52%
Activity [17]: 73.18%
viability at 0.03 µM (A-431 [18]): 26.5%
Activity (A-431 [19]): 46.14%
Activity (A-431 [21]): Dose-Dependent Effect
Activity (A-431 [22]): Active
Activity (A-431 [23]): 9.79%
viability at 0.015 µM (A-431 [24]): 45.4%
Activity (A-431 [25]): Active
Activity (A-431 [26]): Dose-Dependent Effect
Activity (A-431 [27]): 32.12%
IC50 (H22 [28]): 24 nM
Activity (A-431 [29]): 24.95%
Activity (A-431 [30]): 13.84%
Activity (A-431 [31]): Dose-Dependent Effect
inhibition in vivo at 10 mg/kg/day (H22 [32]): 50.3%
IC50 (L02): 112 nM
Activity (A-431 [33]): 16.25%
